# Laboratory results from patent US20250122183A1 (Pfizer Inc., priority 2023, published 2025).
# Like-named read-outs stand apart in the source and are kept apart here.
# How the values were obtained:
# Format in all cases: biochemical
# [1] = biological target: KAT7+BRPF1+EAF6+ING5 4 protein complex (Homo sapiens (Human), UniProt O95251); test: KAT7 BRPF1 assay (SAMDI-MS acetylation of H3 1-21 peptide); settings: Morrison equation fit; replicate number in parentheses
# KAT6A Full length enzyme = KAT6A Full length enzyme (Homo sapiens (Human), UniProt Q92794); test: KAT6A assay (SAMDI-MS acetylation of H3 1-21 peptide); settings: replicate number in parentheses
# Sequence of KAT6A Full length enzyme (Q92794 other isoform, or with tags, fused parts or gaps): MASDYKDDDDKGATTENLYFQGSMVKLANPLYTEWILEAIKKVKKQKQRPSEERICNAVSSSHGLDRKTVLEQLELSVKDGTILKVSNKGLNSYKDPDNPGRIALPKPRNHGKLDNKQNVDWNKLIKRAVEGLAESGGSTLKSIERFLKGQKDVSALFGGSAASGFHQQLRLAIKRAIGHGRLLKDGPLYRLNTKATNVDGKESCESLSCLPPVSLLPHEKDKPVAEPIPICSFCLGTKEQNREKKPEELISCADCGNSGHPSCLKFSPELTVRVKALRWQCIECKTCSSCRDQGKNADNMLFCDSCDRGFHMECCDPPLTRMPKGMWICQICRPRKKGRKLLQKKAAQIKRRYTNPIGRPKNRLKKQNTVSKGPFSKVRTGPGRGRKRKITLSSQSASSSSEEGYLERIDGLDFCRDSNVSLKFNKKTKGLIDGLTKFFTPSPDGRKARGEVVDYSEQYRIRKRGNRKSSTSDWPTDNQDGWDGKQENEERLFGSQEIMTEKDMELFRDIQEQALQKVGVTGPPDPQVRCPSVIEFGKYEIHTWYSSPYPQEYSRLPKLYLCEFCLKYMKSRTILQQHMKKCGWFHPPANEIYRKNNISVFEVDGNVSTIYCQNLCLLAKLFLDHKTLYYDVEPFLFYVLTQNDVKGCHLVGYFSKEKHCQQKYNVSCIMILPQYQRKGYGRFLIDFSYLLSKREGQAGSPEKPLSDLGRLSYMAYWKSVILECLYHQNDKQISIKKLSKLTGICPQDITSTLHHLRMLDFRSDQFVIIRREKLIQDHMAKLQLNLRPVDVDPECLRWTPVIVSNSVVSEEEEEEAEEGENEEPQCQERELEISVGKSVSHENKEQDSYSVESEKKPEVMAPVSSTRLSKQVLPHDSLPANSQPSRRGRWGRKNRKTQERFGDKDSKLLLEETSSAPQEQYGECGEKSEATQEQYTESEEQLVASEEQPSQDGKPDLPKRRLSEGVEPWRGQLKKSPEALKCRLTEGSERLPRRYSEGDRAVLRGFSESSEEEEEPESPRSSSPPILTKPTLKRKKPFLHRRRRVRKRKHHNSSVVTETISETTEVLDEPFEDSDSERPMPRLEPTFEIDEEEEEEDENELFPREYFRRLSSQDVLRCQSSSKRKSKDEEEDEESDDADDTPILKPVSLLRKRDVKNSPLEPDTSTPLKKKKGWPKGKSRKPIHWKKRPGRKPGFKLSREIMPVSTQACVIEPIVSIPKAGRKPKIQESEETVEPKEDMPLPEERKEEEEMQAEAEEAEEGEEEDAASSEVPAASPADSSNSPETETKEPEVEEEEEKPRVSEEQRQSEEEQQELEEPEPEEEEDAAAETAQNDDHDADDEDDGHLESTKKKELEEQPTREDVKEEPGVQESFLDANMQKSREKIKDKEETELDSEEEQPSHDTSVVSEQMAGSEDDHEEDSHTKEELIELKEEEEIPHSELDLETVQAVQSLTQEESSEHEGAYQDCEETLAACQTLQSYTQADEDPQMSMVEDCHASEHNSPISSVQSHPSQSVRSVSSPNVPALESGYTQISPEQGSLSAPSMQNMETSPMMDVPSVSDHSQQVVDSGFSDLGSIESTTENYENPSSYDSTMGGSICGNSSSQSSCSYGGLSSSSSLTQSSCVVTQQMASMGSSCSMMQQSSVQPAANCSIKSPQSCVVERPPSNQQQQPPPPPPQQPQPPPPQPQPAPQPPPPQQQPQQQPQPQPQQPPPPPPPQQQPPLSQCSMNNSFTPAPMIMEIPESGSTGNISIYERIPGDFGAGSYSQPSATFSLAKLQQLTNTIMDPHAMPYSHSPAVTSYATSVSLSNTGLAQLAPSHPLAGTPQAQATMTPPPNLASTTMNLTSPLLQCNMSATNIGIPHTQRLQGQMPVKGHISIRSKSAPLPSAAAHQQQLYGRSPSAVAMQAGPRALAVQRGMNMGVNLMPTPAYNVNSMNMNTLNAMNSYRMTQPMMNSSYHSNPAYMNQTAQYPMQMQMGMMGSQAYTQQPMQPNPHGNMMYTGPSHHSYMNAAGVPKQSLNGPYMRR
# KAT8 Full length enzyme = KAT8 Full length enzyme (Homo sapiens (Human), UniProt Q9H7Z6); test: KAT8 assay (SAMDI-MS acetylation of H3 1-21 peptide); settings: replicate number in parentheses
# Sequence of KAT8 Full length enzyme (Q9H7Z6 whole entry): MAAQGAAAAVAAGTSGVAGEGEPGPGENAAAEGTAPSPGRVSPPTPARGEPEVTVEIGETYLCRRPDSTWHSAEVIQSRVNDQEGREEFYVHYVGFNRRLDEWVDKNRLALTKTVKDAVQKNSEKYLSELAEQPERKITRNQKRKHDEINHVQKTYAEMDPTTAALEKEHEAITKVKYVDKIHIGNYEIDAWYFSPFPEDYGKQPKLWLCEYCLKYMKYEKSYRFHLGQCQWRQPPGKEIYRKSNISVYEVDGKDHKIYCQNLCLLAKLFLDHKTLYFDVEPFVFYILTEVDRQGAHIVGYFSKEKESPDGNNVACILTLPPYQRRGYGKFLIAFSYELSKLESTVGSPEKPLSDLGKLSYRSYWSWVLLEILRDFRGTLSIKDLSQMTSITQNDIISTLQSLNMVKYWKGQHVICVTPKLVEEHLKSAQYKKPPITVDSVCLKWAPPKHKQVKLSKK
# KAT5 Full length enzyme = KAT5 Full length enzyme (Homo sapiens (Human), UniProt Q92993); test: KAT5 assay (SAMDI-MS acetylation of H4 1-21 peptide); settings: replicate number in parentheses
# Sequence of KAT5 Full length enzyme (Q92993 whole entry): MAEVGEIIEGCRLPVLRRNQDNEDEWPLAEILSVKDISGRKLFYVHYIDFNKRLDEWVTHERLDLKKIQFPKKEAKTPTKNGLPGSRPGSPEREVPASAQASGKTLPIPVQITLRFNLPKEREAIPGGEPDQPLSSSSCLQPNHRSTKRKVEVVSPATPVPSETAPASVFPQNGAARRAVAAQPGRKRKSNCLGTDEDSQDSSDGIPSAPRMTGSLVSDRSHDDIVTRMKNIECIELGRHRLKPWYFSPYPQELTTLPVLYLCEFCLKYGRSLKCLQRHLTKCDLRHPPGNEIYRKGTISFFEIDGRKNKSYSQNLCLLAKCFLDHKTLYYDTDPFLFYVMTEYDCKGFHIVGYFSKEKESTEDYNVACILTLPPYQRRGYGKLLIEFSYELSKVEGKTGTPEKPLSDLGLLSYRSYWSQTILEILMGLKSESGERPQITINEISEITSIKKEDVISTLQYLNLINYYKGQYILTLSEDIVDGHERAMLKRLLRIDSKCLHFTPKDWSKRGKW
# [2] = biological target: KAT7+JADE1+EAF6+ING5 4 protein complex (Homo sapiens (Human), UniProt O95251); test: KAT7 JADE1 assay (SAMDI-MS acetylation of H3 1-21 peptide); settings: replicate number in parentheses
# [3] = biological target: KAT7+BRPF2+EAF6+ING5 4 protein complex (Homo sapiens (Human), UniProt O95251); test: KAT7 BRPF2 assay (SAMDI-MS acetylation of H3 1-21 peptide); settings: replicate number in parentheses; read-out: KAT7 BRPF2 Ki (nM) (replicate)
# [4] = Morrison equation fit, read-out: KAT6A Ki (nM) (replicate number)
# [5] = Morrison equation fit, read-out: KAT8 Ki (nM) (replicate number)
# [6] = Morrison equation fit, read-out: KAT5 Ki (nM) (replicate number)
# [7] = Morrison equation fit, read-out: KAT7 JADE1 Ki (nM) (replicate number)
# [8] = read-out: KAT6A Ki (nM) (replicate)
# [9] = read-out: KAT8 Ki (nM) (replicate)
# [10] = read-out: KAT5 Ki (nM) (replicate)
# [11] = read-out: KAT7 JADE1 Ki (nM) (replicate)
structure (smiles),measurement,setting,value
"COc1cc2c(NS(=O)(=O)c3c(OC)cc(C4CCCN4C)cc3OC)noc2cc1Nc1cc(C2CC2)n[nH]1 (racemic) [Example 154, N-{6-[(3-cyclopropyl-1H-pyrazol-5-yl)amino]-5-methoxy-1,2-benzoxazol-3-yl}-2,6-dimethoxy-4-(1-methylpyrrolidin-2-yl)benzene-1-sulfonamide]",Ki,[1],7.8 nM
same,Ki,KAT6A Full length enzyme; [4],2 nM
same,Ki,KAT8 Full length enzyme; [5],2140 nM
same,Ki,KAT5 Full length enzyme; [6],88.3 nM
same,Ki,[2]; [7],15.3 nM
"COc1cc2c(NS(=O)(=O)c3c(OC)cc(C4CCCCN4C)cc3OC)noc2cc1Nc1cc(C2CC2)n[nH]1 (racemic) [Example 155, N-{6-[(3-cyclopropyl-1 H-pyrazol-5-yl)amino]-5-methoxy-1,2-benzoxazol-3-yl}-2,6-dimethoxy-4-(1-methylpiperidin-2-yl)benzene-1-sulfonamide]",Ki,[1],14.9 nM
same,Ki,KAT6A Full length enzyme; [4],2.9 nM
same,Ki,[2]; [7],24.3 nM
"COc1cc2c(NS(=O)(=O)c3c(OC)cccc3OC3CCC3)noc2cc1Nc1cc[nH]n1 [Example 33, 2-(cyclobutyloxy)-6-methoxy-N-{5-methoxy-6-[(1H-pyrazol-3-yl)amino]-1,2-benzoxazol-3-yl}benzene-1-sulfonamide]",Ki,[1],15.4 nM
same,Ki,KAT8 Full length enzyme; [5],733 nM
same,Ki,KAT5 Full length enzyme; [6],988 nM
same,Ki,[2]; [7],142 nM
"COc1cc2c(NS(=O)(=O)c3c(OC)cccc3OC)noc2cc1Nc1c(C#N)c(C)nn1C [Example 46, N-{6-[(4-cyano-1,3-dimethyl-1H-pyrazol-5-yl)amino]-5-methoxy-1,2-benzoxazol-3-yl}-2,6-dimethoxybenzene-1-sulfonamide]",Ki,[1],> 16100 nM
same,Ki,KAT6A Full length enzyme; [4],> 377 nM
same,Ki,[2]; [7],> 9770 nM
"COc1cc2c(NS(=O)(=O)c3c(OC)cccc3OC)noc2cc1Nc1cc(C)nn1CCO [Example 59, N-(6-{[1-(2-hydroxyethyl)-3-methyl-1H-pyrazol-5-yl]amino}-5-methoxy-1,2-benzoxazol-3-yl)-2,6-dimethoxybenzene-1-sulfonamide]",Ki,[1],580 nM
same,Ki,[2]; [7],> 2870 nM
"COc1cc2c(NS(=O)(=O)c3c(OC)cc(-c4ncc(C)cn4)cc3OC)noc2cc1Nc1cc(C2CC2)n[nH]1 [Example 213, N-{6-[(3-cyclopropyl-1H-pyrazol-5-yl)amino]-5-methoxy-1,2-benzoxazol-3-yl}-2,6-dimethoxy-4-(5-methylpyrimidin-2-yl)benzene-1-sulfonamide]",Ki,[1],1.7 nM
same,Ki,KAT6A Full length enzyme; [4],0.5 nM
same,Ki,KAT8 Full length enzyme; [5],1570 nM
same,Ki,[2]; [7],3.9 nM
"COc1cc2c(NS(=O)(=O)c3c(OC)cc(N4CC[C@@H](F)C4)cc3OC)noc2cc1Nc1cc(C2CC2)n[nH]1 [Example 249, N-{6-[(3-cyclopropyl-1H-pyrazol-5-yl)amino]-5-methoxy-1,2-benzoxazol-3-yl}-4-[(3R)-3-fluoropyrrolidin-1-yl]-2,6-dimethoxybenzene-1-sulfonamide]",Ki,KAT6A Full length enzyme; [8],0.3 nM
same,Ki,KAT8 Full length enzyme; [9],104 nM
same,Ki,[3],0.3 nM
same,Ki,KAT5 Full length enzyme; [10],8.7 nM
same,Ki,[2]; [11],1.7 nM
"COc1cc2c(NS(=O)(=O)c3c(OC)cc(N4CCN(C)CC4)cc3OC)noc2cc1Nc1cc(C2CC2)n[nH]1 [Example 251, N-{6-[(3-cyclopropyl-1H-pyrazol-5-yl)amino]-5-methoxy-1,2-benzoxazol-3-yl}-2,6-dimethoxy-4-(4-methylpiperazin-1-yl)benzene-1-sulfonamide]",Ki,KAT6A Full length enzyme; [8],1 nM
same,Ki,KAT8 Full length enzyme; [9],1150 nM
same,Ki,[3],2.1 nM
same,Ki,KAT5 Full length enzyme; [10],67 nM
same,Ki,[2]; [11],6.2 nM
"COc1cc2c(NS(=O)(=O)c3c(OC)cc(N4CCN(C)C(=O)C4)cc3OC)noc2cc1Nc1cc(C2CC2)n[nH]1 [Example 254, N-{6-[(3-cyclopropyl-1H-pyrazol-5-yl)amino]-5-methoxy-1,2-benzoxazol-3-yl}-2,6-dimethoxy-4-(4-methyl-3-oxopiperazin-1-yl)benzene-1-sulfonamide]",Ki,KAT6A Full length enzyme; [8],0.7 nM
same,Ki,KAT8 Full length enzyme; [9],1260 nM
same,Ki,[3],1.2 nM
same,Ki,KAT5 Full length enzyme; [10],54.5 nM
same,Ki,[2]; [11],6.6 nM
